# In patent publication US10004754B2, “ANP fragment adjuvant therapy to standard of care (SOC) diuretic treatment” (MADELEINE PHARMACEUTICALS PTY LTD, priority 2014, dated 2018):
# Where two headings read alike, the source gives them in different places. Where no end group is shown, it is not given here.
# Experiments:
# clinical = assay: clinical; design: species or system human; conditions: in vivo
# stable CHF patients [1] = assay type: in vivo, human; conditions: for Diastolic Blood Pressure: baseline 65 ± 10; for Diastolic Blood Pressure / Systolic Blood Pressure: with SOC; for Systolic Blood Pressure: baseline 119 ± 15
# Procedure: VSDL in the form of a white lyophilised powder (synthesised using standard protein synthesis method by Auspep Pty Ltd, Parkville, VIC, Australia), stored in an ultra-low freezer (−80° C.), was reconstituted in a vial with 10 ml of 0.9% saline (preservative free) and aseptically transferred into a 20 ml syringe (that connects to a cannula) before use.
# A first study was conducted with a cohort of eight (8) test adult patients, both male and female, with a history of stable, chronic congestive heart failure and moderate renal impairment that had been selected on the basis of the following Inclusion and Exclusion criteria:
# All patients underwent existing standard of care (SOC) treatment for the condition for which they presented. These treatments were diuretic therapy (ie administration with furosemide or spironolactone) and an antihypertensive drug(s) (eg an Angiotensin Converting Enzyme (ACE) inhibitor, beta blocker agent and calcium channel blocker agent). […]
# stable CHF patients [2] = assay: Cardiovascular haemodynamics (Swan-Ganz catheterisation) with sc VSDL infusion, Example 2; assay type: in vivo, human; conditions: for Cardiac Output, Mean / Cardiac Output, Median: baseline 4.7; for systemic vascular resistance: baseline=3076+929
# Procedure: (§1) A second study was conducted with a population of eighteen (18) test adult CHF patients, both male and female, in order to further evaluate the improvement in renal and cardiac function in stable CHF patients given VSDL (by sc administration) in addition to standard of care (SOC) treatment.
# (§2) Participants were selected on the basis of the Inclusion and Exclusion criteria given in Example 1. […] In addition, selected patients were required to have a plasma brain natriuretic peptide (BNP) concentration of ≥100 pg/mL and a GFR ≥25 mL/min and <70 mL/min as calculated by the Cockroft Gault calculation (ie moderate renal impairment). On the other hand, the presence of acute MI (ie as indicated by ST elevation and/or elevation of Troponin-T) or evidence of MI or other high risk acute coronary syndrome within the past 6 weeks, hypotension (ie systolic blood pressure (SBP) <90 mmHg), persistent and/or uncontrolled hypertension (SBP>180 mmHg), cardiogenic shock or any other clinical condition that would contraindicate administration of an agent with potent vasodilatory effects, excluded patients from participating in the study. Participants in this study also had standard exclusion criteria that accompany pulmonary artery (SG) catheterisation.
# (§3) The study was an open-label, sequential group, continuous sc infusion study conducted at a single centre. Two steady-state concentration levels (Css) of VSDL were targeted, approximately 10 ng/mL (n=2 lead-in, and n=10, cohort 1) and 20 ng/mL (n=6, cohort 2). The two lead-in patients were treated with similar dose regimens to confirm that the measured plasma concentrations were in agreement with the targeted Css. Two patients from cohort 1 and all 6 patients from cohort 2 underwent pulmonary artery Swan-Ganz (SG) catheterisation to enable haemodynamic monitoring.
# (§4) VSDL prepared as described in Example 1, was administered via sc 6 or 12 hour infusion into the lower abdomen at a maximum volume rate of 350 μL/hr (ie approximately 6 μL/min). The rate of infusion of VSDL for the targeted Css level of 10 ng/mL was either 900 μg/hr (0.3 mL/hr) for 12 hrs or a bimodal infusion of 900 μg/hr for 5 hrs followed by 550 μg/hr (0.18 mL/hr) for 7 hrs. The rate of infusion of VSDL for the targeted Css level of 20 ng/mL was bimodal; 1800 μg/hr (0.20 mL/hr) for 5 hrs followed by 1100 μg/hr (0.12 mL/hr) for 7 hrs (see WO 2014/138796). For the lead-in patients, the infusions were performed at 900 μg/hr for 6 hrs.
# (§5) R Studio (version 4) and GraphPad Prism (GraphPad Software, version 6) were used for all statistical analyses. Statistically significant changes from base line for all parameters were tested using with linear mixed effects model or one-way repeated measures ANOVA with Bonferroni correction. A p value of 0.05 was set for statistically significant differences. All data are reported as mean±s.d or mean (95% CI).
# stable CHF patients [3] = assay: Urine output and fractional excretion of sodium with sc VSDL infusion, Example 2; assay type: in vivo, human
# Procedure: as §1, §2, §3, §4, §5
# [4] = tested on: patients showing either acute exacerbations of chronic CHF or ADCHF; conditions: cited from earlier work
sequence,measurement,setting,value
EVVPPQVLSEPNEEAGAALSPLPEVPPWTGEVSPAQR [VSDL],bioavailability,"clinical; both sexes, human, sc",19.2%
same,"CL Maximum Elimination rate, Pop value","clinical; human, sc",26.8 L/h
same,"F Bioavailability, Pop value","clinical; human, sc",26.894%
same,"ETASHARE Random effect scalinmg factor, Pop value",clinical,1.000 ratio
same,"RUVADDIV Residual Error (Additive, I.V.), Pop value",clinical; iv,0.248 ng/mL
same,"RUVCVIV Residual Error (Proportional, I.V.), Pop value",clinical; iv,0.336 ratio
same,"FVOL Infused volume on F, Pop value",clinical; sc,1.590 ratio
same,"KA Absorption rate constant, Pop value",clinical; sc,0.625 h⁻¹
same,"LGT Logit F value, Pop value",clinical; sc,−1.00
same,"RUVADDSC Residual Error (Additive, S.C.), Pop value",clinical; sc,0.070 ng/mL
same,"RUVCVSC Residual Error (Proportional, S.C.), Pop value",clinical; sc,0.259 Ratio
same,"V2 S.C. bolus V scaling factor, Pop value",clinical; sc,1.62 ratio
same,"V3 S.C. infusion V scaling factor, Pop value",clinical; sc,3.65 ratio
same,"V Central volume, Pop value",clinical; sc,13.20 L
same,Diastolic Blood Pressure,stable CHF patients [1]; 10 ng/kg column,64 ± 7 mmHg
same,Systolic Blood Pressure,stable CHF patients [1]; 10 ng/kg column,122 ± 10 mmHg
same,Diastolic Blood Pressure,stable CHF patients [1]; 20 ng/kg column,65 ± 6 mmHg
same,Systolic Blood Pressure,stable CHF patients [1]; 20 ng/kg column,115 ± 19 mmHg
same,symptomatic hypotension,"stable CHF patients [1]; human, in vivo, sc",none of these resulted in symptomatic hypotension
same,change in systolic and diastolic blood pressures,"stable CHF patients [1]; stable CHF patients, sc bolus VSDL with SOC, p < 0.05",significant drop
same,"Cardiac Output, Mean",stable CHF patients [2]; >0.5-6 hrs,4.6 L/min
same,"Cardiac Output, Median",stable CHF patients [2]; >0.5-6 hrs,4.2 L/min
same,"Cardiac Output, Mean",stable CHF patients [2]; >6-12 hrs,4.9 L/min
same,"Cardiac Output, Median",stable CHF patients [2]; >6-12 hrs,4.3 L/min
same,"Cardiac Output, Mean",stable CHF patients [2]; >12-24 hrs,5.0 L/min
same,"Cardiac Output, Median",stable CHF patients [2]; >12-24 hrs,4.4 L/min
same,pulmonary capillary wedge pressure,"stable CHF patients [2]; adjuvant VSDL treatment, limited patient numbers to date",either decreased or unchanged
same,pulmonary vascular resistance,stable CHF patients [2]; infusion of VSDL,no changes
same,increase in cardiac output on average above baseline (regression of cardiac output on time),"stable CHF patients [2]; t=3.16, p≤0.05, FIG. 1",0.000472 L/min
same,systemic vascular resistance,stable CHF patients [2]; ≥0.5-6 hs,2658+676 dyn·s/cm^5
same,systemic vascular resistance,stable CHF patients [2]; ≥6-12 hs,2529+509 dyn·s/cm^5
same,systemic vascular resistance,stable CHF patients [2]; ≥12-24 hs,2485+645 dyn·s/cm^5
same,mean urine output,stable CHF patients [3]; 10 ng/ml cohort,2898 ± 334 mL
same,FENa (fractional excretion of sodium),"stable CHF patients [3]; 10 ng/ml cohort, during infusion, baseline 2.2±0.3%, not statistically significant",3.3±0.8%
same,FENa (fractional excretion of sodium),"stable CHF patients [3]; 10 ng/ml cohort, post infusion, baseline 2.2±0.3%",2.3±0.3%
same,mean urine output,stable CHF patients [3]; 20 ng/ml cohort,3028 ± 301 mL
same,FENa (fractional excretion of sodium),"stable CHF patients [3]; 20 ng/ml cohort, during infusion, baseline 1.6±0.3%",2.4±0.8%
same,FENa (fractional excretion of sodium),"stable CHF patients [3]; 20 ng/ml cohort, post infusion, baseline 1.6±0.3%",1.6±0.4%
same,fluid output (urine volumes from baseline),stable CHF patients [3]; patients treated with VSDL plus SOC,increased
same,patients with urine volumes above 3 liters/day,"stable CHF patients [3]; pooled 10 and 20 ng/ml patients, FIG. 2",more than 50%
same,side-effects,"[4]; in vivo, iv",without side-effects
same,"outcomes (eg increased cardiac index, drops in pulmonary capillary wedge pressure and blood pressure)","[4]; iv infusion, even with very low doses, WO 2012/019237",improved outcomes
